Key:
[1] = target: Sodium-dependent dopamine transporter (Homo sapiens, UniProt Q01959); experiment: DRUGMATRIX: Dopamine Transporter radioligand binding (ligand: [125I] RTI-55); format: cell membranes, CHO-K1, Membrane; conditions: Not Active = under 50% inhibition at 10 µM
[2] = target: T1, Alpha-2C adrenergic receptor (Homo sapiens, UniProt P18825); experiment: DRUGMATRIX: Adrenergic Alpha-2C radioligand binding (ligand: [3H] MK-912); format: cell membranes, Sf9, Membrane
T1 sequence (P18825 whole entry): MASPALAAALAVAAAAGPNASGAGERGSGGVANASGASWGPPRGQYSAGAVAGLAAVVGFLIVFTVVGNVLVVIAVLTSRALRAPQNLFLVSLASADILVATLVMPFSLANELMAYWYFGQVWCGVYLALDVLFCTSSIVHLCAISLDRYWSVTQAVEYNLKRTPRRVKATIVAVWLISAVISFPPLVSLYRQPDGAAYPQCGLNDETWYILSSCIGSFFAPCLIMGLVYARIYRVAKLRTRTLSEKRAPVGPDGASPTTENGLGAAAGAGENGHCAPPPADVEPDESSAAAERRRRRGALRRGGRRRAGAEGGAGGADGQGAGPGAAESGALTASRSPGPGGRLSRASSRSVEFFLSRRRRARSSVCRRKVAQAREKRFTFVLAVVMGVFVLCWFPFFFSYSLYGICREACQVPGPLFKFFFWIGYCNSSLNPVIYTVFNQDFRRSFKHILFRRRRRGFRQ

[3] = target: Mitogen-activated protein kinase 1 (Homo sapiens, UniProt P28482); experiment: DRUGMATRIX: Protein Serine/Threonine Kinase, ERK2 enzyme inhibition (substrate: Myelin Basic Protein); set-up: species or system Escherichia coli; conditions: Not Active = under 50% inhibition at 10 µM
Sequence of Mitogen-activated protein kinase 1 (P28482 whole entry): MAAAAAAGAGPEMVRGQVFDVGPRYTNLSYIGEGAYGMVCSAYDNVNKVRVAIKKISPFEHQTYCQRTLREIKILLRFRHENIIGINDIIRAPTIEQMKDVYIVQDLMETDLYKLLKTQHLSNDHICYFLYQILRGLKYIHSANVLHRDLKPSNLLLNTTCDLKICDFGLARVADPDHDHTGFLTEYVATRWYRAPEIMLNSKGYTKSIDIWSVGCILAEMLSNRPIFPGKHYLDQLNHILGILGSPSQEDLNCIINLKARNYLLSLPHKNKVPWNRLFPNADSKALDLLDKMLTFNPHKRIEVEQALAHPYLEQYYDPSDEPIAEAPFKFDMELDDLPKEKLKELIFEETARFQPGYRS

[4] = target: C-C chemokine receptor type 2 (Homo sapiens, UniProt P41597); format: cell membranes, CHO-K1, Membrane; conditions: cho-k1; note: in other assays of this panel Not Active means under 50% inhibition at 10 µM
Sequence of C-C chemokine receptor type 2 (P41597 whole entry): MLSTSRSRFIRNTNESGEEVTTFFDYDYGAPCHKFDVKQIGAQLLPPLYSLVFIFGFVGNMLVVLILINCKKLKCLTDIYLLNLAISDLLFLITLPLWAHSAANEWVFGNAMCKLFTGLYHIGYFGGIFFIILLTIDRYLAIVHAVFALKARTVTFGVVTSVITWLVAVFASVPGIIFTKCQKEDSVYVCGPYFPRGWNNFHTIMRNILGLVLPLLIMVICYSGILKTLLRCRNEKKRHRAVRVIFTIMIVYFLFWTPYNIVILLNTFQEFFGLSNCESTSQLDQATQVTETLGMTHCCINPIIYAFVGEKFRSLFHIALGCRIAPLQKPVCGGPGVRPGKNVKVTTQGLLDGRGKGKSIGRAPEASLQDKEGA

[5] = target: Mitogen-activated protein kinase 14 (Homo sapiens, UniProt Q16539); set-up: species or system Escherichia coli;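 note: inhibition of p38alpha enzyme activity in a biochemical kinase assay, with myelin basic protein serving as substrate; in other assays of this panel Not Active means under 50% inhibition at 10 µM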
Sequence of Mitogen-activated protein kinase 14 (Q16539 whole entry): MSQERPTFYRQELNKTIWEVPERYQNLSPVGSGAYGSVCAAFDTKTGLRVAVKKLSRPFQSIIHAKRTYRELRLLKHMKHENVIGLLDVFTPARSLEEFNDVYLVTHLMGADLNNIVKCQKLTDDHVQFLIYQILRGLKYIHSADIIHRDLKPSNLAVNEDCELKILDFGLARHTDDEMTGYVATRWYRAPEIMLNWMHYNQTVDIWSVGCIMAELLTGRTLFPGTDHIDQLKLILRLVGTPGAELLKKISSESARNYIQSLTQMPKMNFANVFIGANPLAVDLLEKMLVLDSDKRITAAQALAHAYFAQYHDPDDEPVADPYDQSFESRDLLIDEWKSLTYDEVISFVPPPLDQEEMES

[6] = DRUGMATRIX: Sodium/nucleoside co-transporter radioligand binding (ligand: nitrobenzylthioinosine); format: cell membranes, Cavia porcellus, Dunkin-Hartley, Cerebral cortex, Membrane; conditions: Not Active = under 50% inhibition at 10 µM
Melanocortin receptor 3 = Melanocortin receptor 3 (Homo sapiens, UniProt P41968); format: cell membranes, Membrane; conditions: hek293; note: in other assays of this panel Not Active means under 50% inhibition at 10 µM
Sequence of Melanocortin receptor 3 (P41968 whole entry): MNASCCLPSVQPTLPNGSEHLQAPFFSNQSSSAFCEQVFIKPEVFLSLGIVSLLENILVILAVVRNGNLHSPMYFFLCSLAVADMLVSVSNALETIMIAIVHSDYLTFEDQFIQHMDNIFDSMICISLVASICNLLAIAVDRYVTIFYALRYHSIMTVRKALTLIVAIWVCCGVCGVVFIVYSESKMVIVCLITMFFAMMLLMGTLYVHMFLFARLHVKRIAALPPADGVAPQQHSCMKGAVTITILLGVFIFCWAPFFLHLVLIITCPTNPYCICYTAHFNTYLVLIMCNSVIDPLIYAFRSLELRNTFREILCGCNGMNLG

[7] = target: T2, C-X-C chemokine receptor type 2 (Homo sapiens, UniProt P25025); format: cell membranes, Membrane; conditions: cho-k1; note: in other assays of this panel Not Active means under 50% inhibition at 10 µM
T2 sequence (P25025 whole entry): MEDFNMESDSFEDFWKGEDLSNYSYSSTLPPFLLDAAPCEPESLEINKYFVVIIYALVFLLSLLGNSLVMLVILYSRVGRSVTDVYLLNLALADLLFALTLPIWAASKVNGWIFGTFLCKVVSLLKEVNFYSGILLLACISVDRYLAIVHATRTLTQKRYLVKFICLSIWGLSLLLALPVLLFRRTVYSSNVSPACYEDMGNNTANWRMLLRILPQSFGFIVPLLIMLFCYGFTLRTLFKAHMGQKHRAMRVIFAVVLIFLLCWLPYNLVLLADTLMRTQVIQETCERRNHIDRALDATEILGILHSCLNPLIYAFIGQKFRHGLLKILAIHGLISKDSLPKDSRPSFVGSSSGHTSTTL

[8] = target: Receptor tyrosine-protein kinase erbB-2 (Homo sapiens, UniProt P04626); experiment: biochemical; format: cell-based, Insect cells
Sequence of Receptor tyrosine-protein kinase erbB-2 (P04626 whole entry): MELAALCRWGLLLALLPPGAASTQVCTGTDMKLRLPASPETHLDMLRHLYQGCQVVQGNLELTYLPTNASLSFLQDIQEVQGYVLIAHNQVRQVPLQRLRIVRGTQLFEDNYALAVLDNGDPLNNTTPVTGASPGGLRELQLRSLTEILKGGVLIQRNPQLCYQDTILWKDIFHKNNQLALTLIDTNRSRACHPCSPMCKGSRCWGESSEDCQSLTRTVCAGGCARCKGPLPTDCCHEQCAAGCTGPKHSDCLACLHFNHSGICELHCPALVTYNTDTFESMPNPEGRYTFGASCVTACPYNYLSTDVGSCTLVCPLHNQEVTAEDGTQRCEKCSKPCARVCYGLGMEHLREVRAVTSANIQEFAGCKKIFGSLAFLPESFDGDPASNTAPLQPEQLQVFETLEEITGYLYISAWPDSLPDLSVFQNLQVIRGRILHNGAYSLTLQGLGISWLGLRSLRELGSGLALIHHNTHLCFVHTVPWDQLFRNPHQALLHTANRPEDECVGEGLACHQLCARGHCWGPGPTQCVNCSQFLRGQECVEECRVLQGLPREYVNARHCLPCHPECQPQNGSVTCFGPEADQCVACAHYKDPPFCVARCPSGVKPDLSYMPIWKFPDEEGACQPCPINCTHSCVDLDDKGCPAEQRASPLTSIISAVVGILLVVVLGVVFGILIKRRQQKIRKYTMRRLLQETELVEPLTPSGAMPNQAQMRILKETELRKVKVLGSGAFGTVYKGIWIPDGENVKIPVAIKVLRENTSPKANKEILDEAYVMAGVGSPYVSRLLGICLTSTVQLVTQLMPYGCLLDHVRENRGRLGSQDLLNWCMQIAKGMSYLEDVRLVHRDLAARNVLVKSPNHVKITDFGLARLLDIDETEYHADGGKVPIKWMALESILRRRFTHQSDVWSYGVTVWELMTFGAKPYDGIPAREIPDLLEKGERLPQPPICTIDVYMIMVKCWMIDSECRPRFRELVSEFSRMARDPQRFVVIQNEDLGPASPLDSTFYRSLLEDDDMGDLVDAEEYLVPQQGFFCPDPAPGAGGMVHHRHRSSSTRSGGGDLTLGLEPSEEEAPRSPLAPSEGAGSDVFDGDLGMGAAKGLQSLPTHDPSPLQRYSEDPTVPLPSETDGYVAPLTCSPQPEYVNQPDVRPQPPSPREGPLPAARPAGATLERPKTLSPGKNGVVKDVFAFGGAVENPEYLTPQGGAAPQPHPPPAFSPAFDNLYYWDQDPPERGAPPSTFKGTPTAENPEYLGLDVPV

[9] = target: Mitogen-activated protein kinase 3 (Homo sapiens, UniProt P27361); experiment: DRUGMATRIX: Protein Serine/Threonine Kinase, ERK1 enzyme inhibition (substrate: Myelin Basic Protein); set-up: species or system Escherichia coli; conditions: Not Active = under 50% inhibition at 10 µM
Sequence of Mitogen-activated protein kinase 3 (P27361 whole entry): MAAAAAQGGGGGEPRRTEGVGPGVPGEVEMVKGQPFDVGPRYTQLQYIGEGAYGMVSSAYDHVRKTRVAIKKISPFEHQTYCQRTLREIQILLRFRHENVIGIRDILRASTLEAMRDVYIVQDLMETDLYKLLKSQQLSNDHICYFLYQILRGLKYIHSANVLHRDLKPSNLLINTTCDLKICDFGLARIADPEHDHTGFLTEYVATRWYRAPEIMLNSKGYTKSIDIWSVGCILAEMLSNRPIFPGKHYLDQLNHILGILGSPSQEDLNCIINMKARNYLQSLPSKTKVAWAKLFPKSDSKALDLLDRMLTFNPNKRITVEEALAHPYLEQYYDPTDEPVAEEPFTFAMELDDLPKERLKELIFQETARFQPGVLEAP

[10] = target: C-C chemokine receptor type 5 (Homo sapiens, UniProt P51681); format: cell membranes, Membrane; conditions: hek293; note: in other assays of this panel Not Active means under 50% inhibition at 10 µM
Sequence of C-C chemokine receptor type 5 (P51681 whole entry): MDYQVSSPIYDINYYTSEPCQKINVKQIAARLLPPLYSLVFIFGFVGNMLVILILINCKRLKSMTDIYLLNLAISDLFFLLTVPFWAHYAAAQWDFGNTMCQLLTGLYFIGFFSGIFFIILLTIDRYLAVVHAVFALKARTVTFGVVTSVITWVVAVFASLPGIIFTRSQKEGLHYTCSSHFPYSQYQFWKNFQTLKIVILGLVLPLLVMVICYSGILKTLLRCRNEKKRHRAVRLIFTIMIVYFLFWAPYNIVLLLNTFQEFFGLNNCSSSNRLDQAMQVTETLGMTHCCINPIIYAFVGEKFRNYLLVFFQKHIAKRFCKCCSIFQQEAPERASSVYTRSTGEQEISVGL

[11] = DRUGMATRIX: Platelet-Derived Growth Factor (PDGF) radioligand binding (ligand: [125I] PDGF); format: cell-based; conditions: nih3t3; Not Active = under 50% inhibition at 10 µM
Thromboxane-A synthase = target: T3, Thromboxane-A synthase (Homo sapiens, UniProt P24557); experiment: biochemical; format: tissue-based, Platelet
T3 sequence (P24557 whole entry): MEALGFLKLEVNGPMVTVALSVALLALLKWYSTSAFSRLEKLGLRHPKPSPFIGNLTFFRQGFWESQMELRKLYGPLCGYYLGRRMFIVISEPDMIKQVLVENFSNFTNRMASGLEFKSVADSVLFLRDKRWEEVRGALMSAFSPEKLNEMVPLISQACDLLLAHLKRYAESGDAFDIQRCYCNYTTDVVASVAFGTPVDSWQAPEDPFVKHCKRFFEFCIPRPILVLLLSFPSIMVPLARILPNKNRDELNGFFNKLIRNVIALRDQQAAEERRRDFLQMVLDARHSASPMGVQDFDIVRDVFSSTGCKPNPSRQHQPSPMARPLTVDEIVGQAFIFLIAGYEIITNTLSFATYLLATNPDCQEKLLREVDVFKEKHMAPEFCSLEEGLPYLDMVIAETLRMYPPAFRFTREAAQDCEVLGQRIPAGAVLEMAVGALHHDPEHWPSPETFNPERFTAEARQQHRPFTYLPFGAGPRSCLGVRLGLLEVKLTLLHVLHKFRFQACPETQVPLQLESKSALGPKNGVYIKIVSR

Progesterone receptor = target: T4, Progesterone receptor (Bos taurus, UniProt Q690N0); experiment: DRUGMATRIX: Progesterone radioligand binding (ligand: [3H] R-5020); format: tissue-based, Uterus; conditions: Not Active = under 50% inhibition at 10 µM
T4 sequence (Q690N0 whole entry): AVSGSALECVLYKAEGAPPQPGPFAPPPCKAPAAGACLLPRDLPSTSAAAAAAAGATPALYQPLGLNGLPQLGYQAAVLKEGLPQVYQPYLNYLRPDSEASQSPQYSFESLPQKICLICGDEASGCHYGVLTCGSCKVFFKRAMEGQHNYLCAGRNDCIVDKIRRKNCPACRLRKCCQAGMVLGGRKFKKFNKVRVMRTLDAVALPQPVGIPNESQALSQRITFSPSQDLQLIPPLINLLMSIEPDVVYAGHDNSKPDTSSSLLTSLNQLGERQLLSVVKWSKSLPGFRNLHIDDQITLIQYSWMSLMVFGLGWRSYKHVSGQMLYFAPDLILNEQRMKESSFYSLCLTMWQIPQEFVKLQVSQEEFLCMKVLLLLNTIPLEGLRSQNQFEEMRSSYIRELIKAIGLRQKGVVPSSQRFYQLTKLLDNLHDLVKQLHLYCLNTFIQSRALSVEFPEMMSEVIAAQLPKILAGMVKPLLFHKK

Sequence of Sodium-dependent dopamine transporter (Q01959 whole entry): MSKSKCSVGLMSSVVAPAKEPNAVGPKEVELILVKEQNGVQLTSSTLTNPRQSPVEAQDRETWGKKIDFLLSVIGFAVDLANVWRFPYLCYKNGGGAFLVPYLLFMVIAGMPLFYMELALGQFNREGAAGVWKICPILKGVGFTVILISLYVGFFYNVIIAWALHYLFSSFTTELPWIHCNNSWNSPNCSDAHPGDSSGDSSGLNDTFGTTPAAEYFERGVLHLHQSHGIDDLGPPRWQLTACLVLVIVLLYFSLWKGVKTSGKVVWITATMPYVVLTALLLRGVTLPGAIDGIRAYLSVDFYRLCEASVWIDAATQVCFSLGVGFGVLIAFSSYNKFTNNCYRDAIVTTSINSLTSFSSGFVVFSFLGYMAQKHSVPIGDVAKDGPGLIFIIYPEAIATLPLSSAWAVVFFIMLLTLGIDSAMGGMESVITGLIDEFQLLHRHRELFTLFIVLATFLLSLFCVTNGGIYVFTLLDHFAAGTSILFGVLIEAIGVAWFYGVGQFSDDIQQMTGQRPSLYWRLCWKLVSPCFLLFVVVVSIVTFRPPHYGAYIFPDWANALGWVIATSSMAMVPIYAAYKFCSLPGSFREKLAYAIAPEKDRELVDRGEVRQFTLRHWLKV

Structure (SMILES)	IC50 ([1]; cho-k1)	IC50 ([2]; sf9)	IC50 [3]	IC50 [4]	IC50 [5]	IC50 [6]	Ki [6]	IC50 (Melanocortin receptor 3)	IC50 [7]	IC50 ([8]; insect cells)	IC50 [9]	IC50 [10]	IC50 [11]	Ki [11]	IC50 (Thromboxane-A synthase; platelet)	IC50 (Progesterone receptor)	further results
CN1[C@@H]2CC[C@H]1C[C@@H](OC(=O)c1c[nH]c3ccccc13)C2 [TROPISETRON]	Not Active	Not Active	Not Active	Not Active	Not Active	Not Active	Not Active	Not Active	Not Active	Not Active	Not Active	Not Active	Not Active	Not Active	Not Active		
COc1cccc(C2(O)CCCCC2CN(C)C)c1 (stereo unspecified) [TRAMADOL]	Not Active	Not Active	Not Active	Not Active	Not Active			Not Active	Not Active	Not Active	Not Active	Not Active			Not Active	Not Active	
CN(C)CCCN1c2ccccc2CCc2ccc(Cl)cc21 [CLOMIPRAMINE]			Not Active	Not Active	Not Active			Not Active	Not Active	Not Active	Not Active	Not Active			Not Active	Not Active	
CCC[C@@H]1C[C@@H](C(=O)N[C@@H]([C@H]2O[C@H](SC)[C@H](O)[C@@H](O)[C@H]2O)[C@@H](C)O)N(C)C1 [LINCOMYCIN]	Not Active	Not Active	Not Active	Not Active	Not Active	Not Active	Not Active	Not Active	Not Active	Not Active	Not Active	Not Active	Not Active	Not Active	Not Active		
CC(C)(O)c1ccccc1CC[C@@H](SCC1(CC(=O)O)CC1)c1cccc(/C=C/c2ccc3ccc(Cl)cc3n2)c1 [MONTELUKAST]			Not Active	Not Active				Not Active	Not Active	Not Active	Not Active	Not Active				Not Active	IC50 ([5]; read-out: IC50): 856 nM; IC50 (Thromboxane-A synthase; read-out: IC50): 1520 nM
COS(C)(=O)=O [METHANESULFONIC ACID METHYL ESTER]	Not Active	Not Active	Not Active	Not Active	Not Active	Not Active	Not Active	Not Active	Not Active	Not Active	Not Active	Not Active	Not Active	Not Active	Not Active		
Clc1ccccc1C(c1ccccc1)(c1ccccc1)n1ccnc1 [CLOTRIMAZOLE]			Not Active	Not Active	Not Active			Not Active	Not Active		Not Active	Not Active					IC50 ([1]; read-out: IC50): 5580 nM; Ki ([1]; read-out: Ki): 4430 nM; IC50 (Progesterone receptor; read-out: IC50): 8770 nM; Ki (Progesterone receptor; read-out: Ki): 1140 nM; IC50 ([8]; read-out: IC50): 66400 nM; IC50 (Thromboxane-A synthase; read-out: IC50): 14 nM
CSc1ccc2c(c1)N(CCC1CCCCN1C)c1ccccc1S2 (stereo unspecified) [THIORIDAZINE]			Not Active	Not Active	Not Active			Not Active	Not Active	Not Active	Not Active	Not Active			Not Active	Not Active	
COc1ccc(CCN2CCC(Nc3nc4ccccc4n3Cc3ccc(F)cc3)CC2)cc1 [ASTEMIZOLE]			Not Active	Not Active	Not Active				Not Active		Not Active	Not Active			Not Active	Not Active	IC50 ([8]; read-out: IC50): 13100 nM
COC(=O)[C@@H]1[C@H]2C[C@H]3c4[nH]c5ccccc5c4CCN3C[C@@H]2CC[C@@H]1O [YOHIMBINE]	Not Active		Not Active	Not Active	Not Active	Not Active	Not Active	Not Active	Not Active	Not Active	Not Active	Not Active	Not Active	Not Active	Not Active	Not Active	
O=C(CCCN1CCC(O)(c2ccc(Cl)cc2)CC1)c1ccc(F)cc1 [HALOPERIDOL]			Not Active	Not Active	Not Active			Not Active	Not Active	Not Active	Not Active	Not Active			Not Active		
CN1CCN2c3ccccc3Cc3ccccc3C2C1 (stereo unspecified) [MIANSERIN]	Not Active		Not Active	Not Active	Not Active			Not Active	Not Active	Not Active	Not Active	Not Active			Not Active	Not Active	IC50 ([2]; read-out: IC50): 179 nM; Ki ([2]; read-out: Ki): 26 nM
